Experimental data from patent US20210047291A1, “PESTICIDALLY ACTIVE HETEROCYCLIC DERIVATIVES WITH SULFUR CONTAINING SUBSTITUENTS” (SYNGENTA PARTICIPATIONS AG, priority 2018, published 2021).

Experiments:
Melodoigyne incognita = assay: Example B14: Melodoigyne incognita juvenile mobility, in vitro profiling in 96 well plate; format: in vivo; details: 200 ppm; after 24 h; second stage juveniles; read-out: control (juvenile mobility)
Procedure, shortened: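 Second-stage juveniles (100–150 per well, freshly harvested) were exposed in triplicate to test solutions prepared at 1000, 200, 100, 50, 25 and 12.5 ppm before nematode suspension was added. Plates were kept 24 h at room temperature in the dark. Juvenile mobility was measured by imaging and compared with 12 untreated replicates.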

[1] = tested on: Euschistus heros (Neotropical Brown Stink Bug); assay: Example B3: Euschistus heros, soybean leaves, N2 nymphs; format: in vivo; details: for percent effect (mortality or growth inhibition) at 200 ppm: Euschistus heros, 120 h, application rate of 200 ppm, N2 nymphs, 5 days after infestation, read-out: effect in at least one of the two categories (mortality or growth inhibition); for mortality at 50 ppm: Concentration 50 ppm, Euschistus heros (Example B3), read-out: Mortality (%)
Description: Soybean leaves on agar in 24-well microtiter plates were sprayed with aqueous test solutions prepared from 10,000 ppm DMSO stock solutions. After drying the leaves were infested with N2 nymphs. The samples were assessed for mortality and growth inhibition in comparison to untreated samples 5 days after infestation.

[2] = tested on: Myzus persicae (Green peach aphid); assay: Example B5: Myzus persicae feeding/contact activity, sunflower leaf discs; format: in vivo; details: foliar; for mortality at 200 ppm: Myzus persicae, 144 h, application rate of 200 ppm, mixed ages, 6 days after infestation, read-out: mortality; for mortality at 12.5 ppm: Concentration 12.5 ppm, Myzus persicae (feeding/contact, Example B5), read-out: Mortality (%)
Description: (§1) Sunflower leaf discs were placed onto agar in a 24-well microtiter plate and sprayed with aqueous test solutions prepared from 10,000 ppm DMSO stock solutions. After drying, the leaf discs were infested with an aphid population of mixed ages. The samples were assessed for mortality 6 days after infestation.

[3] = tested on: Myzus persicae (Green peach aphid); assay: Example B6: Myzus persicae systemic activity, pea seedlings; format: in vivo; details: for mortality at 24 ppm: Myzus persicae, 144 h, test rate of 24 ppm, mixed ages, 6 days after placing seedlings into test solutions, read-out: mortality; for mortality at 1.5 ppm: Concentration 1.5 ppm, Myzus persicae (systemic, Example B6), read-out: Mortality (%)
Description: Roots of pea seedlings infested with an aphid population of mixed ages were placed directly into aqueous test solutions prepared from 10,000 DMSO stock solutions. The samples were assessed for mortality 6 days after placing seedlings into test solutions.

[4] = tested on: Spodoptera littoralis (Egyptian Cotton Leaf Worm); assay: Example B9: Spodoptera littoralis, cotton leaf discs (mortality, anti-feeding, growth inhibition); format: in vivo; details: foliar, 72 h, application rate of 200 ppm, L1 larvae, 3 days after infestation, read-out: control (mortality, anti-feeding effect or growth inhibition)
Description: Cotton leaf discs were placed onto agar in 24-well microtiter plates and sprayed with aqueous test solutions prepared from 10,000 ppm DMSO stock solutions. After drying the leaf discs were infested with five L1 larvae. The samples were assessed for mortality, anti-feeding effect, and growth inhibition in comparison to untreated samples 3 days after infestation. Control of Spodoptera littoralis by a test sample is given when at least one of the categories mortality, anti-feedant effect, and growth inhibition is higher than the untreated sample.

[5] = tested on: Diabrotica Balteata (Corn Root Worm); assay: Example B2: Diabrotica balteata, maize sprouts, L2 larvae; format: in vivo; details: Diabrotica balteata, 96 h, application rate of 200 ppm; L2 larvae; 4 days after infestation; read-out: effect in at least one of the two categories (mortality or growth inhibition)
Description: Maize sprouts placed onto an agar layer in 24-well microtiter plates were treated with aqueous test solutions prepared from 10,000 ppm DMSO stock solutions by spraying. After drying, the plates were infested with L2 larvae (6 to 10 per well). The samples were assessed for mortality and growth inhibition in comparison to untreated samples 4 days after infestation.

[6] = tested on: Bemisia tabaci (Cotton White Fly); assay: Example B1: Bemisia tabaci feeding/contact activity, cotton leaf discs; format: in vivo; details: foliar, 144 h, application rate of 200 ppm, adult white flies, 6 days after incubation
Description: Cotton leaf discs were placed on agar in 24-well microtiter plates and sprayed with aqueous test solutions prepared from 10,000 ppm DMSO stock solutions. After drying the leaf discs were infested with adult white flies. The samples were checked for mortality 6 days after incubation.

[7] = tested on: Thrips tabaci (Onion Thrips); assay: Example B11: Thrips tabaci feeding/contact activity, sunflower leaf discs; format: in vivo; details: foliar, 144 h, application rate of 200 ppm, mixed ages, 6 days after infestation
Description: as §1, with “on” for “onto”, “in” for “in a”, “plates” for “plate”, “drying” for “drying,”, “a thrips” for “an aphid”

[8] = tested on: Frankliniella occidentalis (Western Flower Thrips); assay: Example B4: Frankliniella occidentalis feeding/contact activity, sunflower leaf discs; format: in vivo; details: foliar, 168 h, application rate of 200 ppm, mixed ages, 7 days after infestation
Description: Sunflower leaf discs were placed on agar in 24-well microtiter plates and sprayed with aqueous test solutions prepared from 10,000 DMSO stock solutions. After drying the leaf discs were infested with a Frankliniella population of mixed ages. The samples were assessed for mortality 7 days after infestation.

[9] = tested on: Tetranychus urticae (Two-Spotted Spider Mite); assay: Example B10: Tetranychus urticae feeding/contact activity, bean leaf discs; format: in vivo; details: foliar, 192 h, application rate of 200 ppm, mixed population (mobile stages), 8 days after infestation
Description: Bean leaf discs on agar in 24-well microtiter plates were sprayed with aqueous test solutions prepared from 10,000 ppm DMSO stock solutions. After drying the leaf discs were infested with a mite population of mixed ages. The samples were assessed for mortality on mixed population (mobile stages) 8 days after infestation.

[10] = tested on: Plutella xylostella (Diamond Back Moth); assay: Example B7: Plutella xylostella, artificial diet, L2 larvae; format: in vivo; details: 120 h, application rate of 200 ppm, L2 larvae, 5 days after infestation, read-out: effect in at least one of the two categories (mortality or growth inhibition)
Description: 24-well microtiter plates with artificial diet were treated with aqueous test solutions prepared from 10,000 ppm DMSO stock solutions by pipetting. After drying, the plates were infested with L2 larvae (10 to 15 per well). The samples were assessed for mortality and growth inhibition in comparison to untreated samples 5 days after infestation.

melting point [°C]	SMILES	pest or weed control at 200 ppm (Melodoigyne incognita) [%]	percent effect (mortality or growth inhibition) at 200 ppm [1] [%]	mortality at 200 ppm [2] [%]	mortality at 24 ppm [3] [%]	percent control (mortality, anti-feedant effect or growth inhibition) at 200 ppm [4] [%]	percent effect (mortality or growth inhibition) at 200 ppm [5] [%]	mortality at 200 ppm [6] [%]	mortality at 200 ppm [7] [%]	mortality at 200 ppm [8] [%]	mortality at 200 ppm [9] [%]	percent effect (mortality or growth inhibition) at 200 ppm [10] [%]	mortality at 50 ppm [1] [%]	mortality at 12.5 ppm [2] [%]	mortality at 1.5 ppm [3] [%]
211 to 213	CCS(=O)(=O)c1cc(N2CCSCC2=O)cnc1-c1nc2cc(C(F)(F)F)ncc2n1C [P19, 4-[5-ethyslulfonyl-6-[3-methyl-6-(trifluoromethyl)imidazo[4,5-c]pyridin-2-yl]-3-pyridyl]thiomorpholin-3-one]	≥ 80	–	–	–	–	–	–	–	–	–	–	–	–	–
–	CCS(=O)(=O)c1cc(N(C)C(=O)CSC)cnc1-c1nc2cc(C(F)(F)F)ncc2n1C [P14, N-[5-ethylsulfonyl-6-[3-methyl-6-(trifluoromethyl)imidazo[4,5-c]pyridin-2-yl]-3-pyridyl]-N-methyl-2-methylsulfanyl-acetamide]	≥ 80	≥ 80	≥ 80	≥ 80	≥ 80	≥ 80	≥ 80	–	–	–	–	–	–	–
–	CCSc1cc(NC(=O)C2CC2)cnc1-c1nc2cc(C(F)(F)F)ncc2n1C [P1, N-[5-ethylsulfanyl-6-[3-methyl-6-(trifluoromethyl)imidazo[4,5-c]pyridin-2-yl]-3-pyridyl]cyclopropanecarboxamide]	–	–	–	–	–	≥ 80	–	≥ 80	≥ 80	–	–	–	–	–
–	CCS(=O)(=O)c1cc(N2CCSC2=O)cnc1-c1nc2cc(C(F)(F)F)ncc2n1C [P45, 3-[5-ethylsulfonyl-6-[3-methyl-6-(trifluoromethyl)imidazo[4,5-c]pyridin-2-yl]-3-pyridyl]thiazolidin-2-one]	≥ 80	≥ 80	≥ 80	≥ 80	≥ 80	≥ 80	≥ 80	–	–	≥ 80	≥ 80	100	80	50
260	CCS(=O)(=O)c1cc(NC(=O)C(F)(F)F)ccc1-c1nc2cc(C(F)(F)F)ncc2n1C [P3, N-[3-ethylsulfonyl-4-[3-methyl-6-(trifluoromethyl)imidazo[4,5-c]pyridin-2-yl]phenyl]-2,2,2-trifluoro-acetamide]	–	–	–	–	–	–	–	–	–	–	–	–	–	–
–	CCN(C(C)=O)c1cnc(-c2nc3cc(C(F)(F)F)ncc3n2C)c(S(=O)(=O)CC)c1 [P21, N-ethyl-N-[5-ethylsulfonyl-6-[3-methyl-6-(trifluoromethyl)imidazo[4,5-c]pyridin-2-yl]-3-pyridyl]acetamide]	≥ 80	≥ 80	≥ 80	≥ 80	–	≥ 80	–	–	≥ 80	≥ 80	–	100	100	100
–	CCC(=O)N(C)c1cnc(-c2nc3cc(C(F)(F)F)ncc3n2C)c(S(=O)(=O)CC)c1 [P23, N-[5-ethylsulfonyl-6-[3-methyl-6-(trifluoromethyl)imidazo[4,5-c]pyridin-2-yl]-3-pyridyl]-N-methyl-propanamide]	≥ 80	≥ 80	≥ 80	≥ 80	≥ 80	≥ 80	–	–	–	≥ 80	≥ 80	100	90	100
–	CCS(=O)(=O)c1cc(NC(=O)C2CC2)cnc1-c1nc2cc(C(F)(F)F)ncc2n1C [P2, N-[5-ethylsulfonyl-6-[3-methyl-6-(trifluoromethyl)imidazo[4,5-c]pyridin-2-yl]-3-pyridyl]cyclopropanecarboxamide]	–	≥ 80	≥ 80	≥ 80	–	≥ 80	–	≥ 80	≥ 80	–	≥ 80	–	–	80
195 to 196	CCSc1cc(NC(=O)C(C)(C)O)cnc1-c1nc2cc(C(F)(F)F)ncc2n1C [P7, N-[5-ethylsulfanyl-6-[3-methyl-6-(trifluoromethyl)imidazo[4,5-c]pyridin-2-yl]-3-pyridyl]-2-hydroxy-2-methyl-propanamide]	–	–	–	–	–	–	–	–	–	–	–	–	–	–
–	CCS(=O)(=O)c1cc(N(C)C(=O)C(C)C)cnc1-c1nc2cc(C(F)(F)F)ncc2n1C [P27, N-[5-ethylsulfonyl-6-[3-methyl-6-(trifluoromethyl)imidazo[4,5-c]pyridin-2-yl]-3-pyridyl]-N,2-dimethyl-propanamide]	≥ 80	≥ 80	≥ 80	≥ 80	–	–	≥ 80	–	–	–	≥ 80	–	–	–
–	CCS(=O)(=O)c1cc(N(C)C(=O)C(F)F)cnc1-c1nc2cc(C(F)(F)F)ncc2n1C [P13, N-[5-ethylsulfonyl-6-[3-methyl-6-(trifluoromethyl)imidazo[4,5-c]pyridin-2-yl]-3-pyridyl]-2,2-difluoro-N-methyl-acetamide]	≥ 80	≥ 80	≥ 80	≥ 80	≥ 80	≥ 80	–	–	–	≥ 80	≥ 80	–	–	–
